Data published in patent US7989620B2, “Hydantoin derivatives for the treatment of obstructive airway diseases” (AstraZeneca AB, priority 2004, dated 2011).
pIC50: −log10 of the molar value. Converted amounts (≈) assume the structure as drawn.

Key:
[1] = molecular target: T1, Recombinant human MMP19 catalytic domain (Homo sapiens, UniProt Q99542); assay: Isolated enzyme assay MMP19; type: biochemical; settings: read-out: hMMP19 IC50
T1 construct: Recombinant human MMP19 catalytic domain; made in house
T1 sequence (Q99542 98-256 limits assumed): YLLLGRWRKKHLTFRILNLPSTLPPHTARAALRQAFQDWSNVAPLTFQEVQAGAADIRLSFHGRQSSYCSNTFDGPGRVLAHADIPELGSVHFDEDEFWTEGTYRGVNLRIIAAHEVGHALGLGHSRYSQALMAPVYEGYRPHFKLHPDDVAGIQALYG
Protocol: Recombinant human MMP19 catalytic domain may be expressed and purified as described by Parkar A. A. et al, (2000), Protein Expression and Purification, 20:152. The purified enzyme can be used to monitor inhibitors of activity as follows: MMP19 (40 ng/ml final concentration) is incubated for 120 minutes at 35° C. with the synthetic substrate Mca-Pro-Leu-Ala-Nva-Dpa-Ala-Arg-NH2 (5 μM) in assay buffer (0.1M “Tris-HCl ” (trade mark) buffer, pH 7.3 containing 0.1M NaCl, 20 mM CaCl2, 0.020 mM ZnCl and 0.05% (w/v) “Brij 35” (trade mark) detergent) in the presence (5 concentrations) or absence of inhibitors. Activity is determined by measuring the fluorescence at λex 320 nm and λem 405 nm. Percent inhibition is calculated as follows: % Inhibition is equal to the [Fluorescenceplus inhibitor−Fluorescencebackground] divided by the [Fluorescenceminus inhibitor−Fluorescencebackground].

[2] = molecular target: T2, Recombinant human MMP9 catalytic domain (Homo sapiens, UniProt P14780); assay: Isolated enzyme assay MMP9; type: biochemical; settings: read-out: hMMP9 IC50
T2 sequence (P14780 with tags, fused parts or gaps DEL216-390 limits assumed): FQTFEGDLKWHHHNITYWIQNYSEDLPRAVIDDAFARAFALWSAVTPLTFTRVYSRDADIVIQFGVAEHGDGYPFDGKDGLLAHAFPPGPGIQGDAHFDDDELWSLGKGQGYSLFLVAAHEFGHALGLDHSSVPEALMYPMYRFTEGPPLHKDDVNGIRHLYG
Protocol: Recombinant human MMP9 catalytic domain was expressed and then purified by Zn chelate column chromatography followed by hydroxamate affinity column chromatography. The enzyme can be used to monitor inhibitors of activity as follows: MMP9 (5 ng/ml final concentration) is incubated for 30 minutes at RT with the synthetic substrate Mca-Pro-Cha-Gly-Nva-His-Ala-Dpa-NH2 (5 μM) in assay buffer (0.1 M “Tris-HCl” (trade mark) buffer, pH 7.3 containing 0.1M NaCl, 20 mM CaCl2, 0.020 mM ZnCl and 0.05% (w/v) “Brij 35” (trade mark) detergent) in the presence (10 concentrations) or absence of inhibitors. Activity is determined by measuring the fluorescence at λex 320 nm and λem 405 nm. Percent inhibition is calculated as follows: % Inhibition is equal to the [Fluorescenceplus inhibitor−Fluorescencebackground] divided by the [Fluorescenceminus inhibitor−Fluorescencebackground]. MMP14
A protocol for testing against other matrix metalloproteinases, including MMP9, using expressed and purified pro MMP is described, for instance, by C. Graham Knight et al., (1992) FEBS Lett., 296(3), 263-266.

plasma protein = assay: Plasma protein binding by ultrafiltration; settings: 10 μM, room temperature
Protocol: Plasma protein binding was determined by ultrafiltration in an automated 96 well format assay. On each test occasion the plasma protein binding of a reference compound (budesonide) was monitored in parallel.
Test compounds (10 mM dissolved in DMSO) were added to plasma to a final concentration of 10 μM and equilibrated at room temperature for 10 minutes. 350 μL of the plasma was transferred to an ultrafiltration plate, Microcon-96 (10 kDa cutoff, Millipore). The ultrafiltration plate was centrifuged at 3000 G for 70 minutes at room temperature. After centrifugation, the concentration of the compounds in the obtained plasma water (the unbound fraction) was determined by LC-MS/MS using a 3-point calibration curve and compared to the concentration in the original spiked plasma.
The analyses were performed using a gradient chromatographic system with acetic acid/acetonitrile as mobile phases.

[3] = Determination of solubility in 0.1M phosphate buffer, pH 7.4; settings: 20 °C, pH 7.4, aqueous buffer, thermodynamic from solid
Protocol: Protocol for Determination of Solubility
The test compound (1 mg) was weighed into a 2 mL glass vial with a screw cap and 0.1 M phosphate buffer pH 7.4. (1.00 mL) was added. The sample vial was then sonicated for about 10 minutes and then placed on a shake board overnight at 20° C. The contents of the sample vial were then filtered through a Millipore Millex-LH 0.45 μm filter into a new 2 mL glass vial to give a clear solution. The clear solution (40 μL) was transferred to a new 2 mL glass vial and diluted with 0.1 M phosphate buffer, pH 7.4 (960 μL).
A standard calibration curve for each particular test compound was established using solutions of known concentration. These solutions of known concentration were normally chosen to have concentrations of ˜10 μg/mL and ˜50 μg/mL. They were prepared by dissolving a known weight of the compound in 99.5% ethanol (500 μL) and then sonicating for one minute if necessary. If the compound was still not completely dissolved, DMSO (500 μL) was added and the mixture sonicated for an additional one minute. The resulting solution was then diluted to the appropriate volume with a mixture of acetonitrile/100 mM ammonium acetate pH 5.5 20-50/80-50. If necessary, a further, more dilute, standard solution was prepared by dilution.

[4] = molecular target: T3, Recombinant human MMP 14 catalytic domain (Homo sapiens, UniProt P50281); assay: Isolated enzyme assay MMP14; type: biochemical; settings: read-out: hMMP14 IC50
T3 construct: Recombinant human MMP 14 catalytic domain; made in house
Protocol: Recombinant human MMP 14 catalytic domain may be expressed and purified as described by Parkar A. A. et al, (2000), Protein Expression and Purification, 20, 152. The purified enzyme can be used to monitor inhibitors of activity as follows: MMP14 (10 ng/ml final concentration) is incubated for 60 minutes at room temperature with the synthetic substrate Mca-Pro-Cha-Gly-Nva-His-Ala-Dpa-NH2 (10 μM) in assay buffer (0.1M “Tris-HCl” (trade mark) buffer, pH 7.5 containing 0.1M NaCl, 20 mM CaCl2, 0.020 mM ZnCl and 0.05% (w/v) “Brij 35” (trade mark) detergent) in the presence (5 concentrations) or absence of inhibitors. Activity is determined by measuring the fluorescence at λex 320 nm and λem 405 nm. Percent inhibition is calculated as follows: % Inhibition is equal to the [Fluorescenceplus inhibitor−Fluorescencebackground] divided by the [Fluorescenceminus inhibitor−Fluorescencebackground].

[5] = molecular target: T4, Recombinant human MMP 12 catalytic domain (Homo sapiens, UniProt P39900); assay: Isolated enzyme assay MMP12; type: biochemical; settings: read-out: hMMP12 IC50
T4 construct: Recombinant human MMP 12 catalytic domain; made in house
T4 sequence (P39900 106-263 limits assumed): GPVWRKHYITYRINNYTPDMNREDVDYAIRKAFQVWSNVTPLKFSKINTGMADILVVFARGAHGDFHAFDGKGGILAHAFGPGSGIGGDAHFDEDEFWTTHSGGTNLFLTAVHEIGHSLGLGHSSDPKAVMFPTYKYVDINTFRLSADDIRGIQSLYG
Protocol: Recombinant human MMP 12 catalytic domain may be expressed and purified as described by Parkar A. A. et al, (2000), Protein Expression and Purification, 20, 152. The purified enzyme can be used to monitor inhibitors of activity as follows: MMP12 (50 ng/ml final concentration) is incubated for 60 minutes at room temperature with the synthetic substrate Mca-Pro-Cha-Gly-Nva-His-Ala-Dpa-NH2 (10 μM) in assay buffer (0.1M “Tris-HCP” (trade mark) buffer, pH 7.3 containing 0.1M NaCl, 20 mM CaCl2, 0.020 mM ZnCl and 0.05% (w/v) “Brij 35” (trade mark) detergent) in the presence (10 concentrations) or absence of inhibitors. Activity is determined by measuring the fluorescence at λex 320 nm and λem 405 nm. Percent inhibition is calculated as follows: % Inhibition is equal to the [Fluorescenceplus inhibitor−Fluorescencebackground] divided by the [Fluorescenceminus inhibitor−Fluorescencebackground]. MMP8

hMMP8 = molecular target: T5, hMMP8 (Homo sapiens, UniProt P22894); assay: Isolated enzyme assay MMP8; type: biochemical
T5 construct: purchased Calbiochem
T5 sequence (P22894 101-467): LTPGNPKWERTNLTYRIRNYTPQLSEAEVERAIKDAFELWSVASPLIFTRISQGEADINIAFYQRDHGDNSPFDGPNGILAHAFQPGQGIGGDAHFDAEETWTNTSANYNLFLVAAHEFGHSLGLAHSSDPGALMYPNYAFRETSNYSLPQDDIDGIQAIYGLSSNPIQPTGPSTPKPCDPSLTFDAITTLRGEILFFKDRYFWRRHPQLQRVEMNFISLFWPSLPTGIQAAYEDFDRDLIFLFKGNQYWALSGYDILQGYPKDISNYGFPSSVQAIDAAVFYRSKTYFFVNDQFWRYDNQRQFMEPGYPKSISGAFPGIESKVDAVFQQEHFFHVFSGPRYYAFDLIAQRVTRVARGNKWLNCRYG
Protocol: Purified pro-MMP8 is purchased from Calbiochem. The enzyme (at 10 μg/ml) is activated by p-amino-phenyl-mercuric acetate (APMA) at 1 mM for 2.5 h, 35° C. The activated enzyme can be used to monitor inhibitors of activity as follows: MMP8 (200 ng/ml final concentration) is incubated for 90 minutes at 35° C. (80% H2O) with the synthetic substrate Mca-Pro-Cha-Gly-Nva-His-Ala-Dpa-NH2 (12.5 μM) in assay buffer (0.1M “Tris-HCl” (trade mark) buffer, pH 7.5 containing 0.1M NaCl, 30 mM CaCl2, 0.040 mM ZnCl and 0.05% (w/v) “Brij 35” (trade mark) detergent) in the presence (10 concentrations) or absence of inhibitors. Activity is determined by measuring the fluorescence at λex 320 nm and λem 405 nm. Percent inhibition is calculated as follows: % Inhibition is equal to the [Fluorescenceplus inhibitor−Fluorescencebackground] divided by the [Fluorescenceminus inhibitor−Fluorescencebackground]. MMP9

Compound | pIC50 [1] | pIC50 [2] | Protein binding (% free) (plasma protein) | solubility [3] [µM] | pIC50 [4] | pIC50 [5] | pIC50 (hMMP8) | Solubility pH 7.4 [μM]
C[C@]1(CS(=O)(=O)N2CC=C(C#Cc3ccc(Cl)cc3)CC2)NC(=O)NC1=O [(5S)-5-({[4-[(4-chlorophenyl)ethynyl]-3,6-dihydropyridin-1(2H)-yl]sulfonyl}methyl)-5-methylimidazolidine-2,4-dione, reference compound] | 5.40 | 8.05 | 1.75 | 49 (≈ 20 µg/mL) | 5.37 | 8.70 | 6.74 | 
Cc1ccc(C#CC2=CCN(S(=O)(=O)C[C@@]3(C)NC(=O)NC3=O)CC2)cc1 [(5S)-5-methyl-5-({[4-[(4-methylphenyl)ethynyl]-3,6-dihydropyridin-1(2H)-yl]sulfonyl}methyl)imidazolidine-2,4-dione, reference compound] | 5.71 | 7.47 | 2.25 | 72 (≈ 27.9 µg/mL) | 5.35 | 8.52 | 6.42 | 
C[C@]1(CS(=O)(=O)N2CC=C(C#Cc3cnc(C4CC4)nc3)CC2)NC(=O)NC1=O [Example 1, (5S)-5-({[4-[(2-Cyclopropylpyrimidin-5-yl)ethynyl]-3,6-dihydropyridin-1(2H) -yl]sulfonyl}methyl)-5-methylimidazolidine-2,4-dione] |  | 8.30 | 18 | 396 (≈ 165 µg/mL) | < 5.00 | 8.22 | 5.60 | 
C[C@]1(CS(=O)(=O)N2CC=C(C#Cc3cnc(C(F)(F)F)nc3)CC2)NC(=O)NC1=O [Example 3] | 5.10 | 8.30 |  |  | < 5.00 | 8.22 | 6.26 | 118
CCc1ncc(C#CC2=CCN(S(=O)(=O)C[C@@]3(C)NC(=O)NC3=O)CC2)cn1.O=C(O)C(F)(F)F [Example 5, (5S)-5-({[4-[(2-Ethylpyrimidin-5-yl)ethynyl]-3,6-dihydropyridin-1(2H) -yl]sulfonyl}methyl)-5-methylimidazolidine-2,4-dione trifluoroacetate] |  | 8.05 | 47 | 91 | < 5.00 | 8.05 | 5.94 | 
